# According to PubChem BioAssay (NCI):
#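 A five-concentration, 48-hour dose response in 96-well plates underlies each endpoint, interpolated linearly between surrounding concentrations. GI50: concentration for 50% inhibition of growth. TGI: total growth inhibition.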
# Key:
# Assay in all cases: NCI-60 cell line screen, 48 h
# SK-OV-3 ovarian = test system: SK-OV-3 ovarian
# K-562 leukemia = test system: K-562 leukemia
# MDA-MB-435 = test system: MDA-MB-435
# NCI-H522 lung = test system: NCI-H522 lung
# HT29 colon = test system: HT29 colon
# SNB-19 CNS = test system: SNB-19 CNS
# EKVX NSCLC = test system: EKVX NSCLC
# SR leukemia = test system: SR leukemia
# OVCAR-3 ovarian = test system: OVCAR-3 ovarian
# 786-0 renal = test system: 786-0 renal
# MDA-MB-231 breast = test system: MDA-MB-231 breast
# SK-MEL-28 melanoma = test system: SK-MEL-28 melanoma
# HCT-116 colon = test system: HCT-116 colon
# NCI-H23 lung = test system: NCI-H23 lung
# UACC-62 melanoma = test system: UACC-62 melanoma
# UACC-257 melanoma = test system: UACC-257 melanoma
# M14 melanoma = test system: M14 melanoma
# ACHN renal = test system: ACHN renal
# COLO 205 colon = test system: COLO 205 colon
# NCI/ADR-RES ovarian = test system: NCI/ADR-RES ovarian
# HOP-92 NSCLC = test system: HOP-92 NSCLC
# HS 578T breast = test system: HS 578T breast
# HL-60(TB) leukemia = test system: HL-60(TB) leukemia
# DU-145 prostate = test system: DU-145 prostate
# SF-268 CNS = test system: SF-268 CNS
# HCT-15 colon = test system: HCT-15 colon
# SK-MEL-2 melanoma = test system: SK-MEL-2 melanoma
# SN12C renal = test system: SN12C renal
# SK-MEL-5 melanoma = test system: SK-MEL-5 melanoma
# SF-295 CNS = test system: SF-295 CNS
# LOX IMVI melanoma = test system: LOX IMVI melanoma
# HCC-2998 colon = test system: HCC-2998 colon
# KM12 colon = test system: KM12 colon
# MOLT-4 leukemia = test system: MOLT-4 leukemia
# IGROV1 ovarian = test system: IGROV1 ovarian
# CCRF-CEM leukemia = test system: CCRF-CEM leukemia
# U251 CNS = test system: U251 CNS
# T-47D breast = test system: T-47D breast
# BT-549 breast = test system: BT-549 breast
# UO-31 renal = test system: UO-31 renal
# RXF 393 renal = test system: RXF 393 renal
# SW-620 colon = test system: SW-620 colon
# SNB-75 CNS = test system: SNB-75 CNS
# SF-539 CNS = test system: SF-539 CNS
# PC-3 prostate = test system: PC-3 prostate
# HOP-62 NSCLC = test system: HOP-62 NSCLC
# CAKI-1 renal = test system: CAKI-1 renal
# NCI-H226 lung = test system: NCI-H226 lung
# NCI-H460 lung = test system: NCI-H460 lung
# OVCAR-8 ovarian = test system: OVCAR-8 ovarian
# MALME-3M melanoma = test system: MALME-3M melanoma
# TK-10 renal = test system: TK-10 renal
# RPMI-8226 leukemia = test system: RPMI-8226 leukemia
# A498 renal = test system: A498 renal
# A549 NSCLC = test system: A549 NSCLC
smiles,measurement,setting,value
O=S(=O)(Nc1cc(Br)c(O)c2ccccc12)c1ccc(F)cc1,GI50,SK-OV-3 ovarian,14.7 µM
same,TGI,SK-OV-3 ovarian,35.9 µM
same,GI50,K-562 leukemia,3.19 µM
same,TGI,K-562 leukemia,8.28 µM
same,GI50,MDA-MB-435,1.82 µM
same,TGI,MDA-MB-435,3.3 µM
same,GI50,NCI-H522 lung,5.23 µM
same,TGI,NCI-H522 lung,83.4 µM
same,GI50,HT29 colon,18.2 µM
same,TGI,HT29 colon,> 100 µM
same,GI50,SNB-19 CNS,9.35 µM
same,TGI,SNB-19 CNS,28 µM
same,GI50,EKVX NSCLC,2.64 µM
same,TGI,EKVX NSCLC,7.52 µM
same,GI50,SR leukemia,4.24 µM
same,TGI,SR leukemia,34.3 µM
same,GI50,OVCAR-3 ovarian,2.56 µM
same,TGI,OVCAR-3 ovarian,6.4 µM
same,GI50,786-0 renal,3.35 µM
same,TGI,786-0 renal,11.3 µM
same,GI50,MDA-MB-231 breast,2.1 µM
same,TGI,MDA-MB-231 breast,5.5 µM
same,GI50,SK-MEL-28 melanoma,2.46 µM
same,TGI,SK-MEL-28 melanoma,5.39 µM
same,GI50,HCT-116 colon,2.33 µM
same,TGI,HCT-116 colon,6.44 µM
same,GI50,NCI-H23 lung,2.8 µM
same,TGI,NCI-H23 lung,7.87 µM
same,GI50,UACC-62 melanoma,1.92 µM
same,TGI,UACC-62 melanoma,3.88 µM
same,GI50,UACC-257 melanoma,1.87 µM
same,TGI,UACC-257 melanoma,3.58 µM
same,GI50,M14 melanoma,2.42 µM
same,TGI,M14 melanoma,6.12 µM
same,GI50,ACHN renal,3.31 µM
same,TGI,ACHN renal,14.1 µM
same,GI50,COLO 205 colon,10.7 µM
same,TGI,COLO 205 colon,29.5 µM
same,GI50,NCI/ADR-RES ovarian,2.96 µM
same,TGI,NCI/ADR-RES ovarian,8.68 µM
same,GI50,HOP-92 NSCLC,1.95 µM
same,TGI,HOP-92 NSCLC,4.54 µM
same,GI50,HS 578T breast,2.75 µM
same,TGI,HS 578T breast,9.98 µM
same,GI50,HL-60(TB) leukemia,2.61 µM
same,TGI,HL-60(TB) leukemia,6.95 µM
same,GI50,DU-145 prostate,1.83 µM
same,TGI,DU-145 prostate,3.32 µM
same,GI50,SF-268 CNS,3.2 µM
same,TGI,SF-268 CNS,12.1 µM
same,GI50,HCT-15 colon,2.95 µM
same,TGI,HCT-15 colon,11.3 µM
same,GI50,SK-MEL-2 melanoma,3.42 µM
same,TGI,SK-MEL-2 melanoma,16.2 µM
same,GI50,SN12C renal,2.04 µM
same,TGI,SN12C renal,4.36 µM
same,GI50,SK-MEL-5 melanoma,1.79 µM
same,TGI,SK-MEL-5 melanoma,3.35 µM
same,GI50,SF-295 CNS,15.7 µM
same,TGI,SF-295 CNS,29.7 µM
same,GI50,LOX IMVI melanoma,2.07 µM
same,TGI,LOX IMVI melanoma,4.88 µM
same,GI50,HCC-2998 colon,18.4 µM
same,TGI,HCC-2998 colon,33.4 µM
same,GI50,KM12 colon,6.27 µM
same,TGI,KM12 colon,21.7 µM
same,GI50,MOLT-4 leukemia,2.31 µM
same,TGI,MOLT-4 leukemia,5.33 µM
same,GI50,IGROV1 ovarian,2.59 µM
same,TGI,IGROV1 ovarian,5.51 µM
same,GI50,CCRF-CEM leukemia,0.76 µM
same,TGI,CCRF-CEM leukemia,8.29 µM
same,GI50,U251 CNS,2.96 µM
same,TGI,U251 CNS,7.77 µM
same,GI50,T-47D breast,2.58 µM
same,TGI,T-47D breast,8.5 µM
same,GI50,BT-549 breast,8.45 µM
same,TGI,BT-549 breast,21.2 µM
same,GI50,UO-31 renal,2.15 µM
same,TGI,UO-31 renal,11.6 µM
same,GI50,RXF 393 renal,3.69 µM
same,TGI,RXF 393 renal,14.1 µM
same,GI50,SW-620 colon,2.45 µM
same,TGI,SW-620 colon,7.65 µM
same,GI50,SNB-75 CNS,3.57 µM
same,TGI,SNB-75 CNS,17.1 µM
same,GI50,SF-539 CNS,2.33 µM
same,TGI,SF-539 CNS,5.48 µM
same,GI50,PC-3 prostate,2.93 µM
same,TGI,PC-3 prostate,12.9 µM
same,GI50,HOP-62 NSCLC,3.58 µM
same,TGI,HOP-62 NSCLC,18.5 µM
same,GI50,CAKI-1 renal,7.7 µM
same,TGI,CAKI-1 renal,20.5 µM
same,GI50,NCI-H226 lung,18.3 µM
same,TGI,NCI-H226 lung,38.9 µM
same,GI50,NCI-H460 lung,18.3 µM
same,TGI,NCI-H460 lung,38.7 µM
same,GI50,OVCAR-8 ovarian,2.78 µM
same,TGI,OVCAR-8 ovarian,7.87 µM
same,GI50,MALME-3M melanoma,2.03 µM
same,TGI,MALME-3M melanoma,3.84 µM
same,GI50,TK-10 renal,18.4 µM
same,TGI,TK-10 renal,32.7 µM
same,GI50,RPMI-8226 leukemia,2.94 µM
same,TGI,RPMI-8226 leukemia,20.1 µM
same,GI50,A498 renal,17.3 µM
same,TGI,A498 renal,33.3 µM
same,GI50,A549 NSCLC,8.3 µM
same,TGI,A549 NSCLC,26.7 µM
